Counter-ions that a name gives are not always drawn. The source made the active and inactive calls.
Assays:
[1] = molecular target: Voltage-gated inwardly rectifying potassium channel KCNH2 (Homo sapiens, UniProt Q12809); conditions: Potency;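 further: confirmatory quantitative high-throughput screen measuring inhibition of hERG channel activity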
[2] = molecular target: Mu-type opioid receptor (Homo sapiens, UniProt P35372); assay type: functional, cell-based;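 further: U2OS cells with beta-arrestin recruitment to OPRM1 by beta-gal complementation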
Mu-type opioid receptor, sequence (P35372 whole entry): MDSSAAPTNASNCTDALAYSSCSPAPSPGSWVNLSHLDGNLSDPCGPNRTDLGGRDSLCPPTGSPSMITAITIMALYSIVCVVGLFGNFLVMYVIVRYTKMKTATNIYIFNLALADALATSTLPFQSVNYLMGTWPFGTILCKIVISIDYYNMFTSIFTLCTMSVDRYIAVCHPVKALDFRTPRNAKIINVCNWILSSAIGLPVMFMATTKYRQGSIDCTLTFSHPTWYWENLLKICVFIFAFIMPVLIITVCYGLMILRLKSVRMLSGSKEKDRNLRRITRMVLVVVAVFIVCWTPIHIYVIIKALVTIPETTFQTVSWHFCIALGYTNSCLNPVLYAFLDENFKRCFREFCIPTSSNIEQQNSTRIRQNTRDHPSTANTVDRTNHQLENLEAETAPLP

[3] = molecular target: 5-hydroxytryptamine receptor 2A (Mus musculus, UniProt P35363); assay type: functional, cell-based;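 further: CHO-K1 cells with tagged receptor and beta-arrestin; agonist potency measured as compound-induced activation of the receptor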
5-hydroxytryptamine receptor 2A, sequence (P35363 whole entry): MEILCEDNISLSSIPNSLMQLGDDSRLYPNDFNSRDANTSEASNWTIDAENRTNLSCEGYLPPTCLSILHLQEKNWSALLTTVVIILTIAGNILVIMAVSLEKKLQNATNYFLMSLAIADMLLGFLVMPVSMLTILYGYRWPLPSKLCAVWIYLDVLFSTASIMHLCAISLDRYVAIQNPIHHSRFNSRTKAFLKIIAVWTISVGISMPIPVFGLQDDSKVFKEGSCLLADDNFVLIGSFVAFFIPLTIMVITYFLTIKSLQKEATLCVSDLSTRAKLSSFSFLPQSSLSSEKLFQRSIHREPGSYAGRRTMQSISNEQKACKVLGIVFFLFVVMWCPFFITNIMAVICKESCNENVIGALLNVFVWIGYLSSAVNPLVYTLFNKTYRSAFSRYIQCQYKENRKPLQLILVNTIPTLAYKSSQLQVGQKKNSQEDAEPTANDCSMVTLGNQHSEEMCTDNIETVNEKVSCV

[4] = viability of uninfected HEp-2 cells – cell-based, HTS, cytotoxicity control for RSV inhibitor project, dose response (AID 2410); assay type: functional; conditions: human respiratory syncytial virus
[5] = test system: Streptococcus sp. 'group A'; assay: Streptococcus pyogenes SK(-)GAS viability under kanamycin – luminescence, BacTiterGlo, confirmation, counter-screen for streptokinase expression inhibitor project, dose response (AID 1900); assay type: functional, organism-based
[6] = A Cell Based Secondary Assay To Explore Cytotoxicity of Compounds that Sensitize Mycobacterium Tuberculosis to Beta-Lactam Antibiotics.; assay type: functional
[7] = molecular target: T1, Streptokinase A (Streptococcus pyogenes serotype M1, UniProt P10520); assay: viability-normalized secreted streptokinase activity reduction – plasminogen activation absorbance, OD405, dose response (AID 1914); assay type: functional, Streptococcus pyogenes M1 GAS;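 further: secreted streptokinase activity via plasminogen activation per viability signal from cell pellet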
T1 sequence (P10520 whole entry): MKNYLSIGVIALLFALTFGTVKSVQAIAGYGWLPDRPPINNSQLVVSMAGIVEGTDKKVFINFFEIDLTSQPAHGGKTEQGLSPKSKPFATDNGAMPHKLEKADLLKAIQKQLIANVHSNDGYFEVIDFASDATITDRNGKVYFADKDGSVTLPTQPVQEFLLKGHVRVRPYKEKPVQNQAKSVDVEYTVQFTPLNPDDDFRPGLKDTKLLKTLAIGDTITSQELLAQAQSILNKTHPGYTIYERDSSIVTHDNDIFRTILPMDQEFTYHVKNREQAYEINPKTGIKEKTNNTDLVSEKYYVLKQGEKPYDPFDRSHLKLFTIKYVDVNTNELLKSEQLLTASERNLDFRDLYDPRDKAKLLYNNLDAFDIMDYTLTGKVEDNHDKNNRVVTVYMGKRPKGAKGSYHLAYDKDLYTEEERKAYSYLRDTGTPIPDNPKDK

[8] = Trypanosoma cruzi growth suppression in host cells – NIH3T3 host cells, beta-gal luminescence, confirmation (AID 2044); assay type: functional, cell-based;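 further: intracellular parasites grown in NIH/3T3 mouse fibroblasts as host cells; luminescent beta-galactosidase reporter signal from transgenic T. cruzi replicating inside host cells; inhibitors lower the luminescence signal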
[9] = NIH3T3 cell viability loss – ATP luminescence, mouse fibroblasts, counter-screen, dose response (AID 2010); assay type: functional, cell-based;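 further: cells exposed to compound for about 90 hours before reading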
[10] = test system: Streptococcus; assay: GAS UMAA2166 growth inhibition – luminescence, BacTiterGlo, counter-screen for streptokinase expression inhibitor project, dose response (AID 1915); assay type: functional, organism-based;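 further: potency for reduction of bacterial viability or growth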
[11] = intracellular Trypanosoma cruzi inhibitors in host cells – cell-based, plate reader, cherry-pick samples, set 3, dose response (AID 651818); assay type: functional;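 further: compounds incubated with infected cells for about four days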
[12] = molecular target: Paired box protein Pax-8 (Homo sapiens, UniProt Q06710); assay: PAX8 transcriptional activity inhibition in RMG-I – RMG-I cells, luciferase, cherry-pick, dose response (AID 687027); assay type: functional, cell-based;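 further: luciferase reporter driven by Pax8 target thyroperoxidase promoter measured by SteadyGlo luminescence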
Paired box protein Pax-8, sequence (Q06710 whole entry): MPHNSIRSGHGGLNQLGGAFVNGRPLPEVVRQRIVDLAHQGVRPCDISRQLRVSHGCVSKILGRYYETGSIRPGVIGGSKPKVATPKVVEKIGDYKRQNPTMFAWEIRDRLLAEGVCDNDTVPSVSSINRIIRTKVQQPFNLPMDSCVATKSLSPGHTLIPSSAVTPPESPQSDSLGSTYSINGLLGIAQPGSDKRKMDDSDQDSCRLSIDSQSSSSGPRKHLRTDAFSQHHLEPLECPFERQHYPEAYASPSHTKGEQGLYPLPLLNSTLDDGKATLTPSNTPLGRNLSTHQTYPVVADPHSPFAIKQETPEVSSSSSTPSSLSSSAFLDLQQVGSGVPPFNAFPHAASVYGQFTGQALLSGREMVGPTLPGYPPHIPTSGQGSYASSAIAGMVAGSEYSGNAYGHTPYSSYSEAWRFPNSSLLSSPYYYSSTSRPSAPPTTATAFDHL

[13] = growth inhibition of yeast DHODH-expressing 3D7 parasites – SYBR Green, dry powder samples, dose response (AID 1159570); assay type: functional, cell-based;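 further: parasite growth measured after 72 hours of compound exposure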
[14] = toxicity to human HepG2 hepatoma cells – cell-based, plate reader, dry powder samples, cytotoxicity control, dose response (AID 1159569); assay type: functional;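 further: inhibitor potency with signal falling toward the positive control level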
[15] = P. falciparum Dd2 growth inhibitors, dose response, SYBR Green, cherry-picked samples (AID 1159567); assay type: functional, cell-based
[16] = Dd2 malaria parasite growth inhibition potency – SYBR Green, dry powder samples, dose response (AID 1159566); assay type: functional, cell-based;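 further: potency for growth inhibition with lower SYBR green DNA signal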
[17] = toxicity to human hepatoma HepG2 cells – cell-based, cherry-picked samples, cytotoxicity control, dose response (AID 1159577); assay type: functional
[18] = growth inhibition of PfATP4-mutant resistant parasites – NITD609-resistant line, SYBR Green, dry powder, dose response (AID 1159571); assay type: functional, cell-based;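 further: parasites synchronized at ring stage by sorbitol before testing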
[19] = cells; assay type: functional, cell-based
[20] = molecular target: T2, Nuclear receptor subfamily 0 group B member 1 (Homo sapiens, UniProt P51843); assay type: functional, cell-based;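 further: HEK293T cells transfected with SF-1 and DAX-1 plus StAR promoter luciferase reporter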
T2 sequence (P51843 whole entry): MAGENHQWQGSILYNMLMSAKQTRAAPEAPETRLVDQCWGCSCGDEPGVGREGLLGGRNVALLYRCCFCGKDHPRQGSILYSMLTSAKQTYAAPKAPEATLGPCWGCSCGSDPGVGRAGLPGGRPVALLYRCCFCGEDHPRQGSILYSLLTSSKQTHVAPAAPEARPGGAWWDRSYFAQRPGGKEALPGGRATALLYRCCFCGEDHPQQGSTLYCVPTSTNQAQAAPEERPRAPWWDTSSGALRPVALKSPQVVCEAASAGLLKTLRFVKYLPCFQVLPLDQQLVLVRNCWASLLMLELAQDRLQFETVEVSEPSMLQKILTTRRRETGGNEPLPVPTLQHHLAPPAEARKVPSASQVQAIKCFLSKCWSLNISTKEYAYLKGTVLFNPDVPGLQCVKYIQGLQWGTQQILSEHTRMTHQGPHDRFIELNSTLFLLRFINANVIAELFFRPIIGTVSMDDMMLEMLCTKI

Voltage-gated inwardly rectifying potassium channel KCNH2, sequence (Q12809 whole entry): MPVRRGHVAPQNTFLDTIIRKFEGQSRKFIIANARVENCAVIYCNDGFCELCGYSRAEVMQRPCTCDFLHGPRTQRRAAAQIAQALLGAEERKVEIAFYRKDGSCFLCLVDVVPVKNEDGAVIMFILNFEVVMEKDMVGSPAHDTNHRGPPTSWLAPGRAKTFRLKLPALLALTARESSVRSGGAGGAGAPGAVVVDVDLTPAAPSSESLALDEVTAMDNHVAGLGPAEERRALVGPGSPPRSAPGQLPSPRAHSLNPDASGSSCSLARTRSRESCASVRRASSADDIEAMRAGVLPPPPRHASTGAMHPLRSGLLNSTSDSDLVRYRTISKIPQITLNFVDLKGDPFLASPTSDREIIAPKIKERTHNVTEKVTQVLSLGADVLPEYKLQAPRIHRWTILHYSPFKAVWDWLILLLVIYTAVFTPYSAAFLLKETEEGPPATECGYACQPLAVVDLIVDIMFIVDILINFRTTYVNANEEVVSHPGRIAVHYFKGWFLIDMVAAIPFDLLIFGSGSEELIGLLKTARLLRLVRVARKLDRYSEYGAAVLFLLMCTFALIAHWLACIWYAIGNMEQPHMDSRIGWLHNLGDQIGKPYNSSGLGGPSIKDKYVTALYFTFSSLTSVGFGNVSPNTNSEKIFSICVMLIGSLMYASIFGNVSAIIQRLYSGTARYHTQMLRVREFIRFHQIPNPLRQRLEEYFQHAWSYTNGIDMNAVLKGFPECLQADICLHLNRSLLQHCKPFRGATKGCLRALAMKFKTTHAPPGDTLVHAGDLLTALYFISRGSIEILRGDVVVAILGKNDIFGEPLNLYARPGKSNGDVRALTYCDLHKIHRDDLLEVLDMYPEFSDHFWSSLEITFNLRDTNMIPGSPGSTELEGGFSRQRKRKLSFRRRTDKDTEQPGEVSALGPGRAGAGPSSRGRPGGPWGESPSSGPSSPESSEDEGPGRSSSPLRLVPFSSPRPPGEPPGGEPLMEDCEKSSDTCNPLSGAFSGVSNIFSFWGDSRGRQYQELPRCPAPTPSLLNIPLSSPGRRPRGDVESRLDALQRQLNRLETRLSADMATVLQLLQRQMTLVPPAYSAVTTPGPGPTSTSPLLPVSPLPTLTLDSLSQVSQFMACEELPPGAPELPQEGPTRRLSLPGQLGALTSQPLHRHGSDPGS

In the case of `C=CCOC(=O)CCCCCCCC`, the AC50 [1] was 79.4 µM (inconclusive).

With `COc1cccc(N2CCN(Cc3nc(N)nc(N4CCCc5ccccc54)n3)CC2)c1` the EC50 [2] was 92.4 µM (inactive) and the EC50 [3] was 76.1 µM (inactive).

In the case of `CCn1c(=O)n(CC)c2cc(N3CCCC3)c(NC(=O)c3cc(Br)ccc3OC)cc21`, the CC50 [4] was 16.4 µM (active), the EC50 [5] was 7.36 µM (active) and the CC50 [6] was 37.6 µM (active). For the same compound, the EC50 [7] was 18.5 µM (active), the EC50 [8] was 0.99 µM (active) and the EC50 [9] was 12 µM (active). The EC50 [10] was 11.2 µM (active).

For `CC(=O)n1cc([C@@H]2C=C(C(=O)N3CCN(Cc4ccc5c(c4)OCO5)CC3)O[C@H](OCCCCO)C2)c2ccccc21`, the CC50 [6] was > 40 µM (active).

For `C[C@@H]1CCCCO[C@H](CN(C)S(=O)(=O)c2cccs2)[C@@H](C)CN([C@H](C)CO)C(=O)c2cc(NC(=O)Nc3ccc(C(F)(F)F)cc3)ccc2O1`, the AC50 [11] was 4.91 µM (active).

In the case of `Cc1ccc(S(=O)(=O)Nc2cccc3c2O[C@@H](CN(C)Cc2ccc(Oc4ccccc4)cc2)[C@@H](C)CN([C@H](C)CO)C3=O)cc1`, the AC50 [11] was 2.89 µM (active) and the AC50 [12] was 12.2 µM (active).

In the case of `COc1ccc(CN(C)C[C@H]2Oc3ccc(NC(=O)Nc4ccc(C(F)(F)F)cc4)cc3CC(=O)N([C@H](C)CO)C[C@H]2C)cc1`, the AC50 [11] was 3.5 µM (active).

With `COc1ccccc1NC(=O)N1CCCCN2[C@@H](CO)[C@H](c3ccc(C#CC4CCCC4)cc3)[C@@H]2C1` the AC50 [13] was 0.425 µM (active), the AC50 [14] was 10.6 µM (active) and the AC50 [15] was 1.98 µM (active). The AC50 [16] was 0.386 µM (active), the AC50 [17] was 17.4 µM (active) and the AC50 [18] was 0.458 µM (active).

In the case of `COc1cccc(-c2cccc(-c3nc(C(=O)Nc4ccc(-c5ccccc5)cc4)cc4c3[C@@H](CCO)N([S+]([O-])C(C)(C)C)C4)c2)c1` (stereo partly drawn), the AC50 [15] was 2.71 µM (active) and the AC50 [17] was 15.2 µM (active).

For `CN1C(=O)CCC1c1cccnc1` (stereo not drawn), the AC50 [1] was 3.16 µM (inconclusive).

With `CNCC(O)c1ccc(O)c(O)c1` (stereo not drawn) [RACEPINEPHRINE HYDROCHLORIDE] the EC50 [3] was 1.39 µM (active), the IC50 [19] was > 67.6 µM (inactive) and the IC50 [20] was > 67.6 µM (inactive). For the same compound, the AC50 [1] was 12.6 µM (inconclusive).

Source: ChEMBL document CHEMBL1201862, “PubChem BioAssay data set” (2004)
